Assay results as given in patent US20260232767A1, “INTERLEUKIN-23 RECEPTOR ANTAGONIST PEPTIDES FOR USE IN THE TREATMENT OF PSORIASIS” (Janssen Pharmaceutica NV, priority 2023, published 2026).

Key:
[1] = test system: subjects with moderate-to-severe plaque psoriasis; test: PSSD symptom and sign scores, Example 2; assay type: in vivo, human
Description: Secondary endpoints included additional change from baseline of Example 1 in PASI, IGA, and PSSD at Week 52, including the proportions of subjects that achieved PAST 90, PAST 100, an IGA score of cleared (0) or minimal (1), PSSD symptoms score=0, and PSSD signs score=0.

[2] = test system: subjects with moderate-to-severe plaque psoriasis; test: Lipid panel laboratory values; assay type: in vivo, human; conditions: Week 52

`CC(=O)NCCCC[C@@H]1NC(=O)[C@H](Cc2c[nH]c3c(C)cccc23)NC(=O)[C@H]([C@@H](C)O)NC(=O)[C@H](CC(N)=O)NC(=O)[C@@H](NC(C)=O)C(C)(C)SSC(C)(C)[C@@H](C(=O)N[C@@H](Cc2ccc(OCCN)cc2)C(=O)N[C@@H](Cc2ccc3ccccc3c2)C(=O)NC2(C(=O)N[C@@H](CCC(=O)O)C(=O)N[C@@H](CC(N)=O)C(=O)N[C@@H](Cc3cccnc3)C(=O)N(C)CC(N)=O)CCOCC2)NC1=O` [IL-23 receptor antagonist peptide, Ac-[Pen]*-N-T-[W(7-Me)]-[Lys(Ac)]-[Pen]*-Phe[4-(2-aminoethoxy)]-[2-Nal]-[THP]-E-N-[3-Pal]-Sarc-NH2 (*[Pen]-[Pen]* formdisulfidebond)] was tested, and the “Subjects Achieving PSSD Sign Score 0 at Week 52” value ([1]; 50 mg QD, Subjects w/Baseline PSSD Sign Score ≥1 (Table 26, second block)) was 5 (11.6%), the “Subjects achieving PSSD Sign Score = 0 at Week 52” value ([1]; 100 mg QD, subjects with Baseline PSSD Sign Score ≥1) was 6 (14.0%) and the “HDL Cholesterol change from baseline, Mean” value (“HDL Cholesterol change … Mean” below) ([2]; 25 mg BID) was 0.011 mmol/L. The “HDL Cholesterol change from baseline, Median” value ([2]; 25 mg BID) was -0.010 mmol/L, the “LDL Cholesterol change from baseline, Mean” value (shortened to “LDL Cholesterol change … Mean”) ([2]; 25 mg BID) was -0.155 mmol/L and the “LDL Cholesterol change from baseline, Median” value ([2]; 25 mg BID) was -0.105 mmol/L. For the same compound, the “Triglycerides change from baseline, Mean” value ([2]; 25 mg BID) was 0.144 mmol/L, the “Triglycerides change from baseline, Median” value (“Triglycerides change … Median” for short) ([2]; 25 mg BID) was 0.040 mmol/L and the “HDL Cholesterol change … Mean” value ([2]; 25 mg QD) was -0.034 mmol/L. For the same compound, the “HDL Cholesterol change from baseline, Median” value ([2]; 25 mg QD) was -0.023 mmol/L, the “LDL Cholesterol change … Mean” value ([2]; 25 mg QD) was 0.069 mmol/L and the “LDL Cholesterol change from baseline, Median” value ([2]; 25 mg QD) was 0.132 mmol/L. For the same compound, the “Triglycerides change from baseline, Mean” value ([2]; 25 mg QD) was 0.034 mmol/L, the “Triglycerides change … Median” value ([2]; 25 mg QD) was 0.040 mmol/L and the “HDL Cholesterol change … Mean” value ([2]; 50 mg QD) was -0.009 mmol/L. For the same compound, the “HDL Cholesterol change from baseline, Median” value ([2]; 50 mg QD) was 0.014 mmol/L, the “LDL Cholesterol change … Mean” value ([2]; 50 mg QD) was -0.146 mmol/L and the “LDL Cholesterol change from baseline, Median” value ([2]; 50 mg QD) was -0.095 mmol/L. For the same compound, the “Triglycerides change from baseline, Mean” value ([2]; 50 mg QD) was 0.156 mmol/L, the “Triglycerides change … Median” value ([2]; 50 mg QD) was 0.067 mmol/L and the “HDL Cholesterol change … Mean” value ([2]; 100 mg BID) was -0.027 mmol/L. The “HDL Cholesterol change from baseline, Median” value ([2]; 100 mg BID) was -0.020 mmol/L, the “LDL Cholesterol change … Mean” value ([2]; 100 mg BID) was -0.056 mmol/L and the “LDL Cholesterol change from baseline, Median” value ([2]; 100 mg BID) was -0.110 mmol/L. The “Triglycerides change from baseline, Mean” value ([2]; 100 mg BID) was 0.137 mmol/L, the “Triglycerides change … Median” value ([2]; 100 mg BID) was 0.010 mmol/L and the “HDL Cholesterol change … Mean” value ([2]; 100 mg QD) was -0.023 mmol/L. For the same compound, the “HDL Cholesterol change from baseline, Median” value ([2]; 100 mg QD) was -0.027 mmol/L, the “LDL Cholesterol change … Mean” value ([2]; 100 mg QD) was -0.147 mmol/L and the “LDL Cholesterol change from baseline, Median” value ([2]; 100 mg QD) was -0.060 mmol/L. The “Triglycerides change from baseline, Mean” value ([2]; 100 mg QD) was 0.024 mmol/L, the “Triglycerides change … Median” value ([2]; 100 mg QD) was -0.005 mmol/L and the “HDL Cholesterol change … Mean” value ([2]; Combined) was -0.012 mmol/L. The “HDL Cholesterol change from baseline, Median” value ([2]; Combined) was -0.020 mmol/L, the “LDL Cholesterol change … Mean” value ([2]; Combined) was -0.098 mmol/L and the “LDL Cholesterol change from baseline, Median” value ([2]; Combined) was -0.105 mmol/L. For the same compound, the “Triglycerides change from baseline, Mean” value ([2]; Combined) was 0.118 mmol/L, the “Triglycerides change … Median” value ([2]; Combined) was 0.020 mmol/L and the “HDL Cholesterol change … Mean” value ([2]; Placebo → 100 mg QD) was 0.013 mmol/L. The “HDL Cholesterol change from baseline, Median” value ([2]; Placebo → 100 mg QD) was -0.035 mmol/L, the “LDL Cholesterol change … Mean” value ([2]; Placebo → 100 mg QD) was -0.138 mmol/L and the “LDL Cholesterol change from baseline, Median” value ([2]; Placebo → 100 mg QD) was -0.212 mmol/L. The “Triglycerides change from baseline, Mean” value ([2]; Placebo → 100 mg QD) was 0.207 mmol/L and the “Triglycerides change … Median” value ([2]; Placebo → 100 mg QD) was 0.035 mmol/L.
